These are literature values, as cited in article PMC9558053, “Development of a novel high-throughput screen for the identification of new inhibitors of protein S-acylation” (The Journal of Biological Chemistry, 2022).

The series concerns zDHHC20. Set-up: method as in PMID 34467875, PMID 34309372. Particulars: ref [33], [39]; read-out: IC50 for inhibition of zDHHC20 activity in vitro; cited from earlier work.

Consider `C=CC(=O)N(CC#N)CCCCCCCCCCCCCC` [N-cyanomethyl-N-myracrylamide], for which the half-inhibitory concentration (IC50) was 1350 ± 260 nM.

One may read the IC50 as the concentration needed to halve the response being measured.
